The test system of assay [1] is rat monocytes. Briefly: macrophage assay: conversion of monocytes to macrophages (nitric oxide, Griess). It is filed as cell-based. Here is the method: A diluent composed of RPMI culture media containing 10% foetal calf serum (FCS) was prepared. A density gradient barrier was prepared by mixing a working solution [Optiprep: diluent, 2:1, v/v] with further diluent in a ratio of 2.3 to 5.0. The density of 1.076 g/ml is required for isolating rat monocytes. Freshly isolated rat blood was cooled to 4° C. 5 ml of the density gradient was layered over 5 ml of the blood and 5 ml of diluent was then layered gently on top. After centrifuging at 700 g for 30 min at 4° C., the monocytes were collected from the top of the 1.076 g/ml layer and diluted with 2 volumes of diluent and the pellet was gently resuspended in Hanks Balanced Salt Solution (HBSS). The cell concentration and the relative purity were determined. 500 μl Aliquots of cell suspension were used. […] 10 μl of LPS (5 mg/ml) was then added to all tubes, except the control, to give a final concentration of LPS of approximately 20 μg/ml. The cells were incubated overnight at 37° C. and then centrifuged at 12,000 g (4° C.) for 5 min. The supernatants were collected and aliquots of these were then assayed in duplicate for the concentration of nitric oxide (NO) by the Griess reagent procedure using a kit (Sigma, St Louis, USA).

Assay [2] concerns activated neutrophils. Briefly: neutrophil activation: superoxide production (WST-1). It is filed as cell-based, rat. The following applies: 100 μg/ml, positive control. As to the method: The in vitro anti-inflammatory screening assay used in this investigation involved determining the effect of a test material on activated neutrophils. The production of superoxide was measured. Neutrophils were prepared from fresh rat blood and diluted with phosphate-buffered saline (PBS) and adjusted to a concentration of 10^7 cells per ml. The purity of the preparation was 95% or higher. The test sample was pre-incubated with a cell suspension at 37° C. for 15 minutes in wells of a 96 well culture plate. Then catalase and WST-1 dye reagent were added to each incubate (including controls). Each was then activated with phorbol myristate acetate (100 ng/ml). After incubation for 1 hr at 37° C. the reaction was stopped and the level of superoxide produced from oxidation of the dye WST by the superoxide in each well of the plate determined calorimetrically at 450 nm. As a positive control, triplicate wells with aspirin (100 μg/ml) were assayed. Each sample was assessed at three different concentrations.

On to `CNC(=N)NCCC[C@H](N)C(=O)O` [L-NMMA], for which the “% Inhibition of conversion of monocytes to macrophages (NO production)” value turned out to be 44.94% in assay [1] (2.5 μM) and 75.07% in assay [1] (5 μM). In addition, the “Absorbance units (nitric oxide production)” value in assay [1] (2.5 μM) is listed as 1.568 Absorbance units; in assay [1] (5 μM) it was 0.710 Absorbance units.
With `CC(=O)Oc1ccccc1C(=O)O` [Aspirin, aspirin], the “Absorbance units (superoxide production)” value in assay [2] was determined as 0.3095 Absorbance units. For the same compound, the inhibition at 100 µg/mL in assay [2] (Rattus norvegicus, Neutrophil) worked out at 46.9%.
